Source: patent US6114371A, “3-(cyclohexanoheteroarylidenyl)-2-indolinone protein tyrosine kinase inhibitors” (Sugen, Inc., priority 1998, dated 2000)

Tests used:
FGFr = experiment: FGF-induced BrdU incorporation assay; assay type: cell-based; conditions: Table 8
EGFr = EGFr (Homo sapiens, UniProt P00533); experiment: EGF-induced BrdU incorporation assay; assay type: cell-based; conditions: Table 8
PDGFr [1] = molecular target: T1, PDGFr (Homo sapiens, UniProt P09619); experiment: PDGF-R ELISA; assay type: cell-based; design: cells (U1242, obtained from Joseph Schlessinger, NYU); endogenous in cells; host or cells: U1242
T1 sequence (P09619 33-1106): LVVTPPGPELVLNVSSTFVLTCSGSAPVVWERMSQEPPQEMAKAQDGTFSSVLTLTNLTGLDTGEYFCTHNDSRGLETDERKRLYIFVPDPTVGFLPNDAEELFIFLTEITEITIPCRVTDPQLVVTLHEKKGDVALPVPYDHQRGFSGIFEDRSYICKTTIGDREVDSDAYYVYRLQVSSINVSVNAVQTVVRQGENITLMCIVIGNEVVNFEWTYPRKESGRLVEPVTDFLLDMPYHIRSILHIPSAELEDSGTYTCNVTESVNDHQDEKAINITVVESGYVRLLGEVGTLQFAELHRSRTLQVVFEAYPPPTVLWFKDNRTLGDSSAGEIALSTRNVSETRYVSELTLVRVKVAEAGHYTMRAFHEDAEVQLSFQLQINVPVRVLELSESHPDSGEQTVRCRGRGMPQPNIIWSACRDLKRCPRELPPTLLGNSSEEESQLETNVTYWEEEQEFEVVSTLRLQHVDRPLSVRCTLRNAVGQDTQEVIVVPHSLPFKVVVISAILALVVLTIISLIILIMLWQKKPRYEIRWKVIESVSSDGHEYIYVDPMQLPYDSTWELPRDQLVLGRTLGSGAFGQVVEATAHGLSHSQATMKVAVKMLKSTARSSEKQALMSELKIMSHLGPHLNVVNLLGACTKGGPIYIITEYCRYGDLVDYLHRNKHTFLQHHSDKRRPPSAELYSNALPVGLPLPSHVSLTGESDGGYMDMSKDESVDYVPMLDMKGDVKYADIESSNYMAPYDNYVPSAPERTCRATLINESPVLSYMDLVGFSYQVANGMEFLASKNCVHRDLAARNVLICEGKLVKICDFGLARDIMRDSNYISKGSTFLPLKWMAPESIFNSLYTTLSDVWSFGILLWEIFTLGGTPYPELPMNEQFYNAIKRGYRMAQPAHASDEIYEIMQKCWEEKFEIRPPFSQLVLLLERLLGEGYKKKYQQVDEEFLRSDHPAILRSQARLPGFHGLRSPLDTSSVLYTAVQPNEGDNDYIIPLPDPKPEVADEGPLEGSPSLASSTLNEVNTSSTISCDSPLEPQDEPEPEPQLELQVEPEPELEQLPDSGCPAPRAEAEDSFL

HUV-EC-C cells = experiment: HUV-EC-C assay, aFGF (3H-thymidine incorporation); assay type: cell-based, human; conditions: Homo sapiens, Table 9; aFGF (ECGF)-stimulated HUV-EC-C, 3H-thymidine; read-out: aFGF IC50
Experimental: The following protocol may also be used to measure a compound's activity against PDGF-R, FGF-R, VEGF, aFGF or Flk-1/KDR, all of which are naturally expressed by HUV-EC cells.
1. […] After cells have detached from the flask, add an equal volume of assay medium and transfer to a 50 mL sterile centrifuge tube (Fisher Scientific; catalogue no. 05-539-6).
1. Make up two-fold drug titrations in separate 96-well plates, generally 50 μM on down to 0 μM. Use the same assay medium as mentioned in day 0, step 2 above. Titrations are made by adding 90 μl/well of drug at 200 μM (4×the final well concentration) to the top well of a particular plate column. Since the stock drug concentration is usually 20 mM in DMSO, the 200 μM drug concentration contains 2% DMSO.
Therefore, diluent made up to 2% DMSO in assay medium (F12K+0.5% fetal bovine serum) is used as diluent for the drug titrations in order to dilute the drug but keep the DMSO concentration constant. Add this diluent to the remaining wells in the column at 60 μl/well. Take 60 μl from the 120 μl of 200 μM drug dilution in the top well of the column and mix with the 60 μl in the second well of the column. Take 60 μl from this well and mix with the 60 μl in the third well of the column, and so on until two-fold titrations are completed. When the next-to-the-last well is mixed, take 60 μl of the 120 μl in this well and discard it. Leave the last well with 60 μl of DMSO/media diluent as a non-drug-containing control. Make 9 columns of titrated drug, enough for triplicate wells each for 1) VEGF (obtained from Pepro Tech Inc., catalogue no. 100-200, 2) endothelial cell growth factor (ECGF) (also known as acidic fibroblast growth factor, or aFGF) (obtained from Boehringer Mannheim Biochemica, catalogue no. 1439 600); or, 3) human PDGF B/B (1276-956, Boehringer Mannheim, Germany) and assay media control. ECGF comes as a preparation with sodium heparin.
2. Transfer 50 μl/well of the drug dilutions to the 96-well assay plates containing the 0.8-1.0×10^4 cells/100 μl/well of the HUV-EC-C cells from day 0 and incubate ~2 h at 37° C., 5% CO2.
3. In triplicate, add 50 μl/well of […] VEGF, 20 ng/mL ECGF, or media control to each drug condition. As with the drugs, the growth factor concentrations are 4×the desired final concentration. Use the assay media from day 0 step 2 to make the concentrations of growth factors. Incubate approximately 24 hours at 37° C., 5% CO2. Each well will have 50 μl drug dilution, 50 μl growth factor or media, and 100 ul cells, =200 ul/well total. Thus the 4×concentrations of drugs and growth factors become 1× once everything has been added to the wells.
1. Add ^3 H-thymidine (Amersham; catalogue no. TRK-686) at 1 μCi/well (10 μl/well of 100 μCi/mL solution made up in RPMI media+10% heat-inactivated fetal bovine serum) and incubate ~24 h at 37° C., 5% CO2. RPMI is obtained from Gibco BRL, catalogue no. 11875-051.
1. Thaw plates and harvest with a 96-well plate harvester (Tomtec Harvester 96®) onto filter mats (Wallac; catalogue no. 1205-401); read counts on a Wallac Betaplate™ liquid scintillation counter.
(§1) The IC50 values were measured for several of the compounds of the invention.

[2] = molecular target: Myc-GyrB-FGFR fusion protein; experiment: Assay measuring the kinase activity of the FGF receptor (Myc-GyrB-FGFR fusion protein); assay type: biochemical; conditions: Table 5; 7 μM ATP
Experimental: The following protocol describes the reagents and procedures used to analyze protein tyrosine kinase activity of the Myc-GyrB-FGFR fusion protein.
5. Add 15 μg COS/FGFR cell lysate Myc-GyrB-FGFR sources per well in HNTG for a final volume of 100 μL per well. Incubate while shaking on a micro-liter plate shaker at room temperature for 2 hours.
9. At this point diluted Compounds/Extracts are added to the ELISA plate. Transfer 10 μL of diluted test and control wells from the polypropylene plate wells to the corresponding ELISA plate wells. Incubate while shaking on a micro-liter plate shaker at room temperature for 20 minutes.
10. Add 10 μL of 70 μM ATP diluted in kinase buffer to positive control and test wells (Final ATP concentration is 7 μM/well.) Add 10 μL of 1×kinase buffer to negative control wells. Incubate while shaking on a micro-liter plate shaker at room temperature for 15 min.
22. Read assay on Dynatech MR7000 ELISA Plate Reader.
as §1

PDGFr [3] = molecular target: T1, PDGFr; experiment: PDGF-induced BrdU incorporation assay; assay type: cell-based; design: expressed in transfected cells; host or cells: 3T3 cell line
FLK-1 receptor = molecular target: T2, FLK-1 receptor (Mus musculus, UniProt P35918); experiment: FLK-1 ELISA (kinase activity of the FLK-1 receptor in engineered cells); assay type: cell-based; conditions: Table 3; VEGF-stimulated NIH3T3 C7#3 cells; read-out: FLK-1 IC50
T2 construct: expressed in transfected cells; host or cells: NIH3T3 C7#3 cells
T2 sequence (P35918 20-1345): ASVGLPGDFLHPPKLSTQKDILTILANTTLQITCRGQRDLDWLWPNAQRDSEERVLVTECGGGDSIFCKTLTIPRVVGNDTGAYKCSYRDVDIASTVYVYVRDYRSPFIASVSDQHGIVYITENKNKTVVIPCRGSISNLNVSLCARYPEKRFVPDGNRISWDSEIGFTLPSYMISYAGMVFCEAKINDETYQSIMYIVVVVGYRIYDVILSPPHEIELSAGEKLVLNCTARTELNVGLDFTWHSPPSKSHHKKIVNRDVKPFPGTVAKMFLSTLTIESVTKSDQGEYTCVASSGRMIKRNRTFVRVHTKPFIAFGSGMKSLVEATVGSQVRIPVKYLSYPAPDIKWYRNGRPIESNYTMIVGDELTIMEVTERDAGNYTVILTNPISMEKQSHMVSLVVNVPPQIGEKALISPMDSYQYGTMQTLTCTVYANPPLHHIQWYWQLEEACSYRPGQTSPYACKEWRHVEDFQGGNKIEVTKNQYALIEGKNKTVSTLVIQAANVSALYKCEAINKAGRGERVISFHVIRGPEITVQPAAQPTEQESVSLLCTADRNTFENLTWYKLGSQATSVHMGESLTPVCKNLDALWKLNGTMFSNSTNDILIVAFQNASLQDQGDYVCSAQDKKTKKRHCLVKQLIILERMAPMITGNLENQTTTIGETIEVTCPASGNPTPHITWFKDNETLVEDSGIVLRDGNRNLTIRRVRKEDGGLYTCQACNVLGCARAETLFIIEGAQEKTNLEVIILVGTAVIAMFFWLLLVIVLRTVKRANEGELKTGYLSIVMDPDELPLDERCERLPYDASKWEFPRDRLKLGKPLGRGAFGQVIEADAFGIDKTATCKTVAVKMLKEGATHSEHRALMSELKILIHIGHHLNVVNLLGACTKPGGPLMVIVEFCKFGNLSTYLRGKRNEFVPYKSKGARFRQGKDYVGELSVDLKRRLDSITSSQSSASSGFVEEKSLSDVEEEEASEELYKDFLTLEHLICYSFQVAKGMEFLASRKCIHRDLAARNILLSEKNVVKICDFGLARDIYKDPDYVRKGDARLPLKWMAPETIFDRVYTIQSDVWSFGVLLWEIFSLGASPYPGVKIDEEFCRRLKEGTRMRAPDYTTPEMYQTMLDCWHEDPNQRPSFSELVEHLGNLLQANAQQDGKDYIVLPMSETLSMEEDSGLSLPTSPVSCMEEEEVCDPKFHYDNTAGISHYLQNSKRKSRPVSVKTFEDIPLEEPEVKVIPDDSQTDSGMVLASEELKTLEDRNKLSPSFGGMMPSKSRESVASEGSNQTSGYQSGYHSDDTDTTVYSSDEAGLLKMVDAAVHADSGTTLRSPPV

src protein kinase = molecular target: T3, src protein kinase (Gallus gallus, UniProt P00523); experiment: Biochemical src assay - ELISA; conditions: Table 6; 5 μM ATP, biotinylated peptide substrate
T3 construct: made in house; host or cells: Schizosaccharomyces pombe (yeast transformed with src, lysate)
Experimental: This assay is used to determine src protein kinase activity measuring phosphorylation of a biotinylated peptide as the readout.
h. […] S. Pombe strain SP200 (h-s leul.32 ura4 ade210) is grown as described and transformations are pRSP expression plasmids are done by the lithium acetate method (Superti-Furga, supra). Cells are grown in the presence of 1 μM thiamine to repress expression from the nmtl promoter or in the absence of thiamine to induce expression.
2. Add 0.08 mL Kinase Reaction Mixture per well (containing 10 μL of 10×Kinase Buffer and 10 μM (final concentration) biotin-[…] per well diluted in water.
(§2) 3. Add 10 μL of compound diluted in water containing 10% DMSO and pre-incubate for 15 minutes at room temperature.
4. Start kinase reaction by adding 10 μL/well of 0.05 mM ATP in water (5 μM ATP final).
as §1

lck protein kinase = molecular target: T4, lck protein kinase (Homo sapiens, UniProt P06239); experiment: Biochemical lck assay - ELISA; conditions: Table 7; 10 μM ATP, GST-zeta substrate
T4 construct: made in house; host or cells: Schizosaccharomyces pombe strain SP200 (lysate)
T4 sequence (P06239 whole entry): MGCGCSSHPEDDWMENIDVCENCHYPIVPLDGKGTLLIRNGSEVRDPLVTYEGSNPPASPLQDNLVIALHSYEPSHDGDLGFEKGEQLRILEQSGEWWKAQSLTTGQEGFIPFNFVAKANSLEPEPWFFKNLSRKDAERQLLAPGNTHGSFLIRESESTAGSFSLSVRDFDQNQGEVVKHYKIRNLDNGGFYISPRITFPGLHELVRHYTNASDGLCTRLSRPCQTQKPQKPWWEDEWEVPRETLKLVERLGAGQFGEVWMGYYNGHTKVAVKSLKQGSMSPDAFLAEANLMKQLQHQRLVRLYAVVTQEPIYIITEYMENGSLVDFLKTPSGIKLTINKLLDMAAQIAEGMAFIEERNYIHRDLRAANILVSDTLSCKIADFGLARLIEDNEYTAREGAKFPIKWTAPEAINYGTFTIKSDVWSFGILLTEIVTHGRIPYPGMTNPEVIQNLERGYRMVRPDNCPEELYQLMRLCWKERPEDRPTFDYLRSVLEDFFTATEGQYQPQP
Experimental: This assay is used to determine lck protein kinase activities measuring phosphorylation of GST-.zeta. as the readout.
b. Yeast transformed with lck. […] S. Pombe strain SP200 (h-s leul.32 ura4 ade210) is grown as described and transformations with pRSP expression plasmids are done by the lithium acetate method (Superti-Furga, supra). Cells are grown in the presence of 1 μM thiamine to induce expression.
2. Add 0.08 mL Kinase Reaction Mixture per well (containing 10 μl of 10×Kinase Buffer and 2 μg GST-.zeta. per well diluted with water).
as §2
4. Start kinase reaction by adding 10 μL/well of 0.1 mM ATP in water (10 μM ATP final).
The IC50 values were measured for one of the compounds of the invention.

[4] = Table 4, ligand-stimulated U1242 cells, read-out: PDGF-R IC50
[5] = Table 8, BrdU incorporation, 3.8 nM PDGF, read-out: PDGFr IC50

EGFr, sequence (P00533 25-1210): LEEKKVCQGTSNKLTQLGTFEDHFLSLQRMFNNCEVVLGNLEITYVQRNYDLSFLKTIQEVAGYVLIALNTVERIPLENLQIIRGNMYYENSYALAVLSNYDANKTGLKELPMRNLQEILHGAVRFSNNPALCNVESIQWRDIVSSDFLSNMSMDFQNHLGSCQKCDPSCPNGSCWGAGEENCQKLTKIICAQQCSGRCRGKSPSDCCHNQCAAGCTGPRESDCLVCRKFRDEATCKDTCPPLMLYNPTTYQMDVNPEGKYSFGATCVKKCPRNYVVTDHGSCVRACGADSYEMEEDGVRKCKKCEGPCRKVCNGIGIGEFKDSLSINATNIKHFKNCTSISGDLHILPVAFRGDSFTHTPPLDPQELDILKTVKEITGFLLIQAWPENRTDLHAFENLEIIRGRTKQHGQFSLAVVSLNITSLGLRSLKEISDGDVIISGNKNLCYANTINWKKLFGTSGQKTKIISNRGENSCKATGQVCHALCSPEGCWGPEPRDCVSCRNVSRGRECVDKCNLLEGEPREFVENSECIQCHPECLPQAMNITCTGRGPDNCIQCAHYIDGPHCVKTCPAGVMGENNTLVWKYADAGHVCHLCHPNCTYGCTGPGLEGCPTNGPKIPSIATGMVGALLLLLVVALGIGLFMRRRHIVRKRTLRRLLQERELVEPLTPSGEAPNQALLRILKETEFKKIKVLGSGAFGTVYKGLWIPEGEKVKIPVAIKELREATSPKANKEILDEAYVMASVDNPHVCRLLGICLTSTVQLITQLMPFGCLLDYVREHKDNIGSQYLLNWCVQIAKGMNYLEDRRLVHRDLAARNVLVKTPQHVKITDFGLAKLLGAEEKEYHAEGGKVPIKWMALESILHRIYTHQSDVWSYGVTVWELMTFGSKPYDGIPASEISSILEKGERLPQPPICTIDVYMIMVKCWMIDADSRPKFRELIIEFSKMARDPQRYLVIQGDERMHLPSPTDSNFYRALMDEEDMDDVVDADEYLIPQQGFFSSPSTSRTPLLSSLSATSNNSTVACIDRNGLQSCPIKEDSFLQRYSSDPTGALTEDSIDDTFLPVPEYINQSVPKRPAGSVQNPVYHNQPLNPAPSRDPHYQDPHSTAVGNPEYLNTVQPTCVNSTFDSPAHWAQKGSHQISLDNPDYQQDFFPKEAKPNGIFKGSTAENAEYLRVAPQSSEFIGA

IC50 (FLK-1 receptor) [µM]	SMILES	IC50 (FGFr) [µM]	IC50 (EGFr) [µM]	IC50 (PDGFr [1]; [4]) [µM]	IC50 (HUV-EC-C cells) [µM]	IC50 [2] [µM]	IC50 (PDGFr [3]; [5]) [µM]	IC50 (src protein kinase) [µM]	IC50 (lck protein kinase) [µM]	IC50 (PDGFr [1]) [µM]	IC50 (PDGFr [3]) [µM]
–	COc1ccc2c(c1)NC(=O)C2=Cc1cc2c([nH]1)CCCC2 [6-methoxy-3-(4,5,6,7-tetrahydro-1H-indol-2-ylmethylene)-1,3-dihydro-indol-2-one]	> 50	> 50	–	–	–	–	–	–	–	–
–	COc1ccccc1-c1ccc2c(c1)NC(=O)C2=Cc1[nH]c2c(c1C)CCCC2 [6-(2-methoxyphenyl)-3-(3-methyl-4,5,6,7-tetrahydro-1H-indol-2-ylmethylene)-1,3-dihydro-indol-2-one]	> 50	> 50	95.7	> 12.5	> 100	> 50	–	–	–	–
17.1	O=C1Nc2cc(O)ccc2C1=Cc1cc2c([nH]1)CCCC2 [6-hydroxy-3-(4,5,6,7-tetrahydro-1H-indol-2-ylmethylene)-1,3-dihydro-indol-2-one]	6.21	12.6	47.2	–	–	0.51	21	–	–	–
–	CCOc1cccc(-c2ccc3c(c2)NC(=O)C3=Cc2cc3c([nH]2)CCCC3)c1 [6-(3-ethoxyphenyl)-3-(4,5,6,7-tetrahydro-1H-indol-2-ylmethylene)-1,3-dihydro-indol-2-one]	> 50	> 50	> 100	> 25	> 20	> 50	–	–	–	–
–	O=C1Nc2cc(Cl)ccc2C1=Cc1cc2c([nH]1)CCCC2 [6-chloro-3-(4,5,6,7-tetrahydro-1H-indol-2-ylmethylene)-1,3-dihydro-indol-2-one]	–	–	> 100	–	> 20	–	–	–	–	–
> 2.5	Cc1cc(Br)c2c(c1)C(=Cc1cc3c([nH]1)CCCC3)C(=O)N2 [7-bromo-5-methyl-3-(4,5,6,7-tetrahydro-1H-indol-2-ylmethylene)-1,3-dihydro-indol-2-one]	–	–	5.56	–	–	–	–	–	–	–
–	O=C1Nc2cc(-c3ccccc3)ccc2C1=Cc1cc2c([nH]1)CCCC2 [6-phenyl-3-(4,5,6,7-tetrahydro-1H-indol-2-ylmethylene)-1,3-dihydro-indol-2-one]	> 50	> 50	70.6	> 12.5	> 100	> 50	–	–	–	–
–	COc1ccc(-c2ccc3c(c2)NC(=O)C3=Cc2[nH]c3c(c2C)CCCC3)cc1 [6-(4-methoxyphenyl)-3-(3-methyl-4,5,6,7-tetrahydro-1H-indol-2-ylmethylene)-1,3-dihydro-indol-2-one]	> 50	> 50	> 100	> 50	> 100	> 50	–	–	–	–
–	O=C1Nc2cc(Br)ccc2C1=Cc1cc2c([nH]1)CCCC2 [6-bromo-3-(4,5,6,7-tetrahydro-1H-indol-2-ylmethylene)-1,3-dihydro-indol-2-one]	–	–	> 100	–	> 20	–	–	–	–	–
–	CC(=O)c1ccc2c(c1)C(=Cc1cc3c([nH]1)CCCC3)C(=O)N2 [5-acetyl-3-(4,5,6,7-tetrahydro-1H-indol-2-ylmethylene)-1,3-dihydro-indol-2-one]	> 50	36.5	> 100	28.8	> 20	> 0.07	17.8	> 100	–	–
> 20	COc1cccc(-c2ccc3c(c2)NC(=O)C3=Cc2cc3c([nH]2)CCCC3)c1 [6-(3-methoxyphenyl)-3-(4,5,6,7-tetrahydro-1H-indol-2-ylmethylene)-1,3-dihydro-indol-2-one]	> 50	31.8	> 100	> 50	–	> 50	–	–	–	–
–	COc1ccc(-c2ccc3c(c2)NC(=O)C3=Cc2cc3c([nH]2)CCCC3)cc1 [6-(4-methoxyphenyl)-3-(4,5,6,7-tetrahydro-1H-indol-2-ylmethylene)-1,3-dihydro-indol-2-one]	> 50	> 50	–	> 12.5	> 100	–	–	–	94	> 50
–	COc1ccccc1-c1ccc2c(c1)NC(=O)C2=Cc1cc2c([nH]1)CCCC2 [6-(2-methoxyphenyl)-3-(4,5,6,7-tetrahydro-1H-indol-2-ylmethylene)-1,3-dihydro-indol-2-one]	43.6	34.1	–	14.6	> 100	–	–	–	12.3	1.06

SMILES	IC50 (FLK-1 receptor) [µM]	IC50 (FGFr) [µM]	IC50 (EGFr) [µM]	IC50 (PDGFr [1]; [4]) [µM]	IC50 (HUV-EC-C cells) [µM]	IC50 [2] [µM]	IC50 (PDGFr [3]; [5]) [µM]	IC50 (src protein kinase) [µM]	IC50 (lck protein kinase) [µM]	IC50 (PDGFr [1]) [µM]	IC50 (PDGFr [3]) [µM]
COc1cccc(-c2ccc3c(c2)NC(=O)C3=Cc2[nH]c3c(c2C)CCCC3)c1 [6-(3-methoxyphenyl)-3-(3-methyl-4,5,6,7-tetrahydro-1H-indol-2-ylmethylene)-1,3-dihydro-indol-2-one]	> 5	–	–	5.83	–	> 20	–	–	–	–	–
Cc1c(C=C2C(=O)Nc3cc(Br)ccc32)[nH]c2c1CCCC2 [6-bromo-3-(3-methyl-4,5,6,7-tetrahydro-1H-indol-2-ylmethylene)-1,3-dihydro-indol-2-one]	2.19	–	–	40	–	> 20	–	–	–	–	–
